From the supplement of paper PMC10331698
± gives the standard deviation of the averaged measurements.

What was measured:
Experiment in all cases: level (log10 ratio to DMSO vehicle control); higher = higher biomarker level / cell amount than vehicle control
Details in all cases: in DMSO
[1] = compound: O=C(Cl)C(F)(F)C(F)(F)C(F)(F)C(=O)Cl [Hexafluoroglutaryl chloride]
Protocol: (§1)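 BioMAP Diversity Plus panel of 12 human primary cell co-culture systems (3C, 4H, LPS, SAg, BT, BF4T, BE3C, CASM3C, HDF3CGF, KF3CT, MyoF, Mphg). Compounds were added 1 h before stimulation and left for 24 h (MyoF 48 h; BT 72 h for soluble read-outs or 6 d for IgG). Biomarkers were read by ELISA, cytotoxicity by SRB, PBMC viability and proliferation by Alamar Blue. Each well value was divided by the mean of 8 DMSO control wells on the same plate and log10 transformed; duplicate blinded samples were tested at 4 concentrations.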

Tetrafluorosuccinic acid = compound: O=C(O)C(F)(F)C(F)(F)C(=O)O [Tetrafluorosuccinic acid]
Protocol: as §1

[2] = compound: O=S(=O)(OCC(F)(F)F)C(F)(F)C(F)(F)C(F)(F)C(F)(F)F [2,2,2-Trifluoroethyl perfluorobutanesulfonate]
Protocol: as §1

[3] = compound: OCCCCC(F)(F)C(F)(F)C(F)(F)C(F)(F)F [4:4 Fluorotelomer alcohol]
Protocol: as §1

Methotrexate = compound: CN(Cc1cnc2nc(N)nc(N)c2n1)c1ccc(C(=O)N[C@@H](CCC(=O)O)C(=O)O)cc1 [Methotrexate]
Protocol: as §1

[4] = compound: O=S(=O)(O)CCC(F)(F)C(F)(F)C(F)(F)C(F)(F)F [4:2 Fluorotelomer sulfonic acid]
Protocol: as §1

BF4T:SRB
level (log10) ([1]; 6700 nM): -0.015 ± 0.0099
level (log10) ([1]; 20000 nM): -0.0115 ± 0.0035
level (log10) ([1]; 60000 nM): -0.0195 ± 0.0035
level (log10) (Tetrafluorosuccinic acid; 6700 nM): -0.0035 ± 0.0021
level (log10) (Tetrafluorosuccinic acid; 20000 nM): -0.005 ± 0.0028
level (log10) (Tetrafluorosuccinic acid; 60000 nM): -0.0025 ± 0.00071
level (log10) ([2]; 6700 nM): 0.005 ± 0.0042
level (log10) ([2]; 20000 nM): 0.002 ± 0.0028
level (log10) ([2]; 60000 nM): 0.0055 ± 0.0021
level (log10) ([3]; 6700 nM): -0.0105 ± 0.0092
level (log10) ([3]; 20000 nM): -0.0085 ± 0.0064
level (log10) ([3]; 60000 nM): -0.002 ± 0.011
level (log10) (Methotrexate; 1500 nM): -0.003 ± 0.017
level (log10) (Methotrexate; 4400 nM): -0.0105 ± 0.0078
level (log10) (Methotrexate; 13000 nM): -0.007 ± 0.0071
level (log10) (Methotrexate; 40000 nM): 0.0045 ± 0.023
level (log10) ([4]; 6700 nM): -0.012 ± 0.0042
level (log10) ([4]; 20000 nM): -0.0085 ± 0.0064
level (log10) ([4]; 60000 nM): -0.0075 ± 0.0064

3C:SRB
level (log10) ([1]; 6700 nM): -0.0025 ± 0.0035
level (log10) ([1]; 20000 nM): 0.008 ± 0.013
level (log10) ([1]; 60000 nM): 0.013 ± 0.0071
level (log10) (Tetrafluorosuccinic acid; 6700 nM): -0.0065 ± 0.011
level (log10) (Tetrafluorosuccinic acid; 20000 nM): -0.0135 ± 0.0078
level (log10) (Tetrafluorosuccinic acid; 60000 nM): -0.021 ± 0.017
level (log10) ([2]; 6700 nM): -0.0135 ± 0.0021
level (log10) ([2]; 20000 nM): -0.014 ± 0.0028
level (log10) ([2]; 60000 nM): -0.0295 ± 0.012
level (log10) ([3]; 6700 nM): -0.0075 ± 0.025
level (log10) ([3]; 20000 nM): 0.004 ± 0.025
level (log10) ([3]; 60000 nM): 0.0095 ± 0.032
level (log10) (Methotrexate; 1500 nM): 0.0055 ± 0.0035
level (log10) (Methotrexate; 4400 nM): 0 ± 0.017
level (log10) (Methotrexate; 13000 nM): 0.011 ± 0.028
level (log10) (Methotrexate; 40000 nM): -0.0155 ± 0.0021
level (log10) ([4]; 6700 nM): -0.0135 ± 0.011
level (log10) ([4]; 20000 nM): -0.0145 ± 0.0078
level (log10) ([4]; 60000 nM): -0.0255 ± 0.025

LPS:CD69
level (log10) ([1]; 6700 nM): 0.0045 ± 0.021
level (log10) ([1]; 20000 nM): -0.0195 ± 0.07
level (log10) ([1]; 60000 nM): -0.005 ± 0.051
level (log10) (Tetrafluorosuccinic acid; 6700 nM): -0.0265 ± 0.0035
level (log10) (Tetrafluorosuccinic acid; 20000 nM): -0.0405 ± 0.0092
level (log10) (Tetrafluorosuccinic acid; 60000 nM): -0.029 ± 0.025
level (log10) ([2]; 6700 nM): 0.0015 ± 0.15
level (log10) ([2]; 20000 nM): 0.001 ± 0.088
level (log10) ([2]; 60000 nM): -0.073 ± 0.16
level (log10) ([3]; 6700 nM): -0.0335 ± 0.016
level (log10) ([3]; 20000 nM): -0.0135 ± 0.015
level (log10) ([3]; 60000 nM): -0.0135 ± 0.015
level (log10) (Methotrexate; 1500 nM): -0.0175 ± 0.015
level (log10) (Methotrexate; 4400 nM): -0.035 ± 0.033
level (log10) (Methotrexate; 13000 nM): -0.0385 ± 0.044
level (log10) (Methotrexate; 40000 nM): -0.0175 ± 0.0092
level (log10) ([4]; 6700 nM): -0.0435 ± 0.052
level (log10) ([4]; 20000 nM): -0.0565 ± 0.029
level (log10) ([4]; 60000 nM): -0.058 ± 0.028

3C:CXCL8/IL-8
level (log10) ([1]; 6700 nM): -0.007 ± 0.023
level (log10) ([1]; 20000 nM): -0.0075 ± 0.029
level (log10) ([1]; 60000 nM): 0.047 ± 0.048
level (log10) (Tetrafluorosuccinic acid; 6700 nM): -0.0265 ± 0.015
level (log10) (Tetrafluorosuccinic acid; 20000 nM): -0.0235 ± 0.012
level (log10) (Tetrafluorosuccinic acid; 60000 nM): -0.0005 ± 0.049
level (log10) ([2]; 6700 nM): 0.0105 ± 0.012
level (log10) ([2]; 20000 nM): 0.014 ± 0.024
level (log10) ([2]; 60000 nM): 0.064 ± 0.071
level (log10) ([3]; 6700 nM): -0.029 ± 0.0085
level (log10) ([3]; 20000 nM): -0.031 ± 0.0057
level (log10) ([3]; 60000 nM): 0.0005 ± 0.0078
level (log10) (Methotrexate; 1500 nM): 0.035 ± 0.016
level (log10) (Methotrexate; 4400 nM): -0.0015 ± 0.059
level (log10) (Methotrexate; 13000 nM): 0.0055 ± 0.023
level (log10) (Methotrexate; 40000 nM): 0.042 ± 0.093
level (log10) ([4]; 6700 nM): -0.0175 ± 0.04
level (log10) ([4]; 20000 nM): -0.011 ± 0.072
level (log10) ([4]; 60000 nM): 0.035 ± 0.1

BF4T:MMP-9
level (log10) ([1]; 6700 nM): -0.0075 ± 0.025
level (log10) ([1]; 20000 nM): -0.0125 ± 0.025
level (log10) ([1]; 60000 nM): 0.005 ± 0.0071
level (log10) (Tetrafluorosuccinic acid; 6700 nM): -0.003 ± 0.021
level (log10) (Tetrafluorosuccinic acid; 20000 nM): -0.0075 ± 0.022
level (log10) (Tetrafluorosuccinic acid; 60000 nM): -0.014 ± 0.0085
level (log10) ([2]; 6700 nM): -0.017 ± 0.0028
level (log10) ([2]; 20000 nM): -0.0145 ± 0.029
level (log10) ([2]; 60000 nM): -0.0225 ± 0.0064
level (log10) ([3]; 6700 nM): 0.0045 ± 0.013
level (log10) ([3]; 20000 nM): -0.0015 ± 0.013
level (log10) ([3]; 60000 nM): 0.0275 ± 0.06
level (log10) (Methotrexate; 1500 nM): 0.0265 ± 0.012
level (log10) (Methotrexate; 4400 nM): -0.0075 ± 0.029
level (log10) (Methotrexate; 13000 nM): 0.014 ± 0.0099
level (log10) (Methotrexate; 40000 nM): 0.016
level (log10) ([4]; 6700 nM): -0.023 ± 0.023
level (log10) ([4]; 20000 nM): -0.02 ± 0.0028
level (log10) ([4]; 60000 nM): 0.0205 ± 0.033

BE3C:CXCL10/IP-10
level (log10) ([1]; 6700 nM): 0.0325 ± 0.035
level (log10) ([1]; 20000 nM): 0.032 ± 0.028
level (log10) ([1]; 60000 nM): 0.0265 ± 0.043
level (log10) (Tetrafluorosuccinic acid; 6700 nM): -0.007 ± 0.0028
level (log10) (Tetrafluorosuccinic acid; 20000 nM): -0.009 ± 0.0057
level (log10) (Tetrafluorosuccinic acid; 60000 nM): -0.0125 ± 0.0035
level (log10) ([2]; 6700 nM): 0.021 ± 0.0057
level (log10) ([2]; 20000 nM): 0.003 ± 0.0028
level (log10) ([2]; 60000 nM): 0.011 ± 0.011
level (log10) ([3]; 6700 nM): -0.0035 ± 0.0021
level (log10) ([3]; 20000 nM): 0
level (log10) ([3]; 60000 nM): 0.014 ± 0.017
level (log10) (Methotrexate; 1500 nM): 0.003 ± 0.051
level (log10) (Methotrexate; 4400 nM): 0.0105 ± 0.032
level (log10) (Methotrexate; 13000 nM): 0.0195 ± 0.019
level (log10) (Methotrexate; 40000 nM): 0.011 ± 0.038
level (log10) ([4]; 6700 nM): -0.0055 ± 0.00071
level (log10) ([4]; 20000 nM): -0.006 ± 0.0085
level (log10) ([4]; 60000 nM): -0.0035 ± 0.011
